The record followed here is PubChem BioAssay (NCI).

Molecules are shown by their SMILES.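 These data come from cells grown in 96-well plates and exposed to compound for 48 hours at five concentrations. GI50 = concentration required for 50% inhibition of growth. TGI marks complete inhibition of growth.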

Test systems include 786-0 renal; CCRF-CEM leukemia; DU-145 prostate; HS 578T breast; MCF7 breast; MDA-MB-231 breast; PC-3 prostate; SK-MEL-5 melanoma; SK-OV-3 ovarian; SNB-19 CNS.
Assay in all cases: growth of human tumour cells (NCI), 48 h

As to `COC(=O)c1cc2c(o1)-c1nccc3c1c(nc1ccccc13)C2=O`, the GI50 with 786-0 renal is 2.93 µM; in the test with CCRF-CEM leukemia it was 3.79 µM; with DU-145 prostate, 4.26 µM; in the test with HS 578T breast, 14.2 µM; in the test on MCF7 breast it was 2.07 µM; in the test with MDA-MB-231 breast it was 5.1 µM. The GI50 is 3.41 µM in the test on PC-3 prostate, 1.2 µM in the test with SK-MEL-5 melanoma, 10.7 µM in the test with SK-OV-3 ovarian and 2.28 µM in the test with SNB-19 CNS. The TGI with 786-0 renal amounted to 14 µM; in the test on CCRF-CEM leukemia it was 15.5 µM; in the test with DU-145 prostate, 22.9 µM; in the test on HS 578T breast, 37.1 µM; in the test on MCF7 breast, 15.6 µM; in the test with MDA-MB-231 breast, 39.5 µM. For the same compound, the TGI with PC-3 prostate was determined as 29.6 µM; in the test with SK-MEL-5 melanoma, 4.69 µM; in the test on SK-OV-3 ovarian, 39.8 µM; with SNB-19 CNS, 6.94 µM.
Consider `N[C@H](CCC(=O)N[C@@H](Cc1c[nH]c2ccccc12)C(=O)O)C(=O)O`, for which the GI50 with 786-0 renal, in the test on CCRF-CEM leukemia, in the test with DU-145 prostate, in the test on HS 578T breast, in the test with MCF7 breast and in the test with MDA-MB-231 breast was over 100 µM in each case. The GI50 with PC-3 prostate, in the test with SK-MEL-5 melanoma, in the test on SK-OV-3 ovarian and in the test with SNB-19 CNS was over 100 µM throughout. Further, the TGI with 786-0 renal, with CCRF-CEM leukemia, in the test with DU-145 prostate, in the test on HS 578T breast, in the test with MCF7 breast and in the test on MDA-MB-231 breast was over 100 µM in each case. Further, the TGI in the test with PC-3 prostate, in the test with SK-MEL-5 melanoma, in the test on SK-OV-3 ovarian and with SNB-19 CNS was over 100 µM each time.
Regarding `Cc1cc(N/N=C/c2ccccn2)nc2ccccc12`, the GI50 with 786-0 renal is 0.384 µM; with CCRF-CEM leukemia, 0.25 µM; in the test with DU-145 prostate, 0.46 µM; in the test on HS 578T breast, 8.2 µM; with MCF7 breast it was 0.316 µM; in the test on MDA-MB-231 breast, 0.469 µM. For the same compound, the GI50 was 0.486 µM with PC-3 prostate, 0.302 µM in the test with SK-MEL-5 melanoma, 0.668 µM with SK-OV-3 ovarian and 0.535 µM in the test with SNB-19 CNS. Further, the TGI in the test on 786-0 renal came out at 12.4 µM; with CCRF-CEM leukemia, 1.77 µM; in the test on DU-145 prostate, 14.3 µM; in the test with HS 578T breast it was 34.5 µM; in the test on MCF7 breast, 8.94 µM; in the test on MDA-MB-231 breast it was 14.3 µM. Moreover, the TGI in the test with PC-3 prostate was 19.2 µM; in the test with SK-MEL-5 melanoma, 6.24 µM; with SK-OV-3 ovarian, 16 µM; in the test on SNB-19 CNS it was 26.3 µM.
As to `O=C(/C=C/c1ccccc1)c1ccccc1`, the TGI is over 10 µM in the test with 786-0 renal; over 7.45 µM in the test on CCRF-CEM leukemia; over 10 µM in the test on DU-145 prostate; over 10 µM in the test with HS 578T breast; over 10 µM in the test with MCF7 breast; over 10 µM with MDA-MB-231 breast. The TGI in the test on PC-3 prostate, in the test with SK-MEL-5 melanoma, in the test with SK-OV-3 ovarian and in the test with SNB-19 CNS was over 10 µM throughout.
As to `NCCNCC1CCNCC1`, the TGI with 786-0 renal, in the test on DU-145 prostate, in the test with HS 578T breast, in the test with MCF7 breast, in the test on MDA-MB-231 breast and in the test on PC-3 prostate was over 100 µM in each case. For the same compound, the TGI with SK-MEL-5 melanoma, in the test with SK-OV-3 ovarian and in the test with SNB-19 CNS was over 100 µM in each case.
Regarding `Cn1c(=O)c2c(nc(C(=N)SCC(=O)O)n2C)n(C)c1=O`, the TGI with 786-0 renal was over 100 µM; in the test with CCRF-CEM leukemia, 35.8 µM; with DU-145 prostate, over 100 µM; in the test on HS 578T breast it was over 100 µM; in the test on MCF7 breast, over 100 µM; in the test with MDA-MB-231 breast, over 100 µM. Moreover, the TGI with PC-3 prostate is over 100 µM; in the test on SK-MEL-5 melanoma, 37.6 µM; with SK-OV-3 ovarian, over 100 µM; with SNB-19 CNS it was over 100 µM.
For the compound `ClCCN(CCCl)c1ccc(CNc2ccccc2)cc1`, the GI50 is 5.11 µM in the test with 786-0 renal; 4.12 µM in the test on CCRF-CEM leukemia; 5.28 µM in the test on DU-145 prostate; 12.4 µM in the test on HS 578T breast; 4.19 µM with MCF7 breast; 28.5 µM in the test on MDA-MB-231 breast. The GI50 with PC-3 prostate was 11.6 µM; in the test on SK-MEL-5 melanoma, 11.3 µM; with SK-OV-3 ovarian, 12 µM; with SNB-19 CNS it was 19 µM. The TGI with 786-0 renal was 36 µM; in the test with CCRF-CEM leukemia, over 100 µM; in the test on DU-145 prostate, over 100 µM; with HS 578T breast, 83.2 µM; in the test on MCF7 breast, over 100 µM; in the test on MDA-MB-231 breast, over 100 µM. Besides, the TGI is over 100 µM with PC-3 prostate, 34.4 µM with SK-MEL-5 melanoma, over 100 µM with SK-OV-3 ovarian and over 100 µM in the test on SNB-19 CNS.
Turning to `CCC(C)(O)c1cnc(CC(C)C)c(=O)n1O` (stereo not drawn), the TGI in the test with 786-0 renal was over 100 µM; in the test with CCRF-CEM leukemia it was 54.1 µM; with DU-145 prostate it was over 100 µM; in the test on HS 578T breast it was over 100 µM; with MDA-MB-231 breast, over 100 µM; in the test with PC-3 prostate it was over 100 µM. Besides, the TGI with SK-MEL-5 melanoma, in the test with SK-OV-3 ovarian and in the test with SNB-19 CNS was over 100 µM each time.
Take `O=C(Nc1cc(Nc2ncccc2-c2ncnc3nc[nH]c23)ccc1F)c1cc(C(F)(F)F)cc(C(F)(F)F)c1`: the GI50 in the test with 786-0 renal is 3.55 µM; with CCRF-CEM leukemia, 2.97 µM; in the test on DU-145 prostate, 4.16 µM; in the test on HS 578T breast it was 1.8 µM; in the test on MCF7 breast it was 2.65 µM; in the test with MDA-MB-231 breast, 1.04 µM. In addition, the GI50 is 2.34 µM in the test on PC-3 prostate, 1.12 µM in the test on SK-MEL-5 melanoma, 2.78 µM with SK-OV-3 ovarian and 3.78 µM in the test with SNB-19 CNS. Besides, the TGI was 9.52 µM in the test with 786-0 renal; over 10 µM in the test with CCRF-CEM leukemia; over 10 µM in the test with DU-145 prostate; 8.88 µM in the test with HS 578T breast; over 10 µM in the test with MCF7 breast; 2.79 µM in the test on MDA-MB-231 breast. The TGI in the test with PC-3 prostate was 5.19 µM; in the test with SK-MEL-5 melanoma, 2.76 µM; with SK-OV-3 ovarian it was 9.19 µM; in the test with SNB-19 CNS it was over 10 µM.
